Laboratory results as given in patent US10874643B2 (priority 2015, dated 2020).

Experiments:
scn1Lab mutants [1] = assay: Locomotion tracking assay of seizure behavior (96-well format)
scn1Lab mutants [2] = format: in vivo, zebrafish
[3] = system: WT zebrafish exposed to 15 mM pentylenetetrazole; assay: PTZ-induced seizure behavior in wild-type larvae (locomotion); format: in vivo; conditions: 100 μM; 15 mM PTZ; n=10
GABA-gated Cl channel = assay: CEREP BioPrint binding; conditions: 1.0E-05M
Description: (§1) Clemizole (149934-L6) was tested in the CEREP BioPrint Profile, which is apanel of 139 different in vitro receptor binding and enzyme assays. For the initial BioPrint screen, afree compound concentration of 10 μM (LOE-5 M) was used. Compound binding was calculated as a % inhibition of the binding of aradioactively labeled ligand specific for each target. Compound enzyme inhibition effect was calculated as a % inhibition of control enzyme activity. In each experiment, the respective reference compound was tested concurrently with Clemizole (149934-L6), and the data were compared with historical values determined at CEREP. The experiment was accepted in accordance with CEREP's validation Standard Operating Procedure. Results showing an inhibition (or stimulation for assays run in basal conditions) higher than 50% are considered to represent significant effects of the test compounds.

GABAA1(h) = biological target: T1, GABAA1(h) (Homo sapiens, UniProt P14867+P47870); assay: CEREP BioPrint binding; conditions: 1.0E-05M; agonist radioligand
T1 construct: CEREP (contract assay panel)
T1 sequence (P14867 28-456): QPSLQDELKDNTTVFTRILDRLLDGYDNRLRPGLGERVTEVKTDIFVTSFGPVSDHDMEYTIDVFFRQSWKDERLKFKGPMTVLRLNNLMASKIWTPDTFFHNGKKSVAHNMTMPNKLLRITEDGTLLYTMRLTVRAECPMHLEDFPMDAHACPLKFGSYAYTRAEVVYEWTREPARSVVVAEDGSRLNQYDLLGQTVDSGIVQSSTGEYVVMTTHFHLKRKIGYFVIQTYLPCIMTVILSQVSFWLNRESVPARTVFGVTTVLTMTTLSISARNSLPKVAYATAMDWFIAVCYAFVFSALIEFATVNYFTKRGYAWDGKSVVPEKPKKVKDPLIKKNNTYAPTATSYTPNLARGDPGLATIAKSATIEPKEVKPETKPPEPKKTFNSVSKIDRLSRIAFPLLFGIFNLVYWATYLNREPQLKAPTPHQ
T1 sequence (P47870 25-512 limits assumed): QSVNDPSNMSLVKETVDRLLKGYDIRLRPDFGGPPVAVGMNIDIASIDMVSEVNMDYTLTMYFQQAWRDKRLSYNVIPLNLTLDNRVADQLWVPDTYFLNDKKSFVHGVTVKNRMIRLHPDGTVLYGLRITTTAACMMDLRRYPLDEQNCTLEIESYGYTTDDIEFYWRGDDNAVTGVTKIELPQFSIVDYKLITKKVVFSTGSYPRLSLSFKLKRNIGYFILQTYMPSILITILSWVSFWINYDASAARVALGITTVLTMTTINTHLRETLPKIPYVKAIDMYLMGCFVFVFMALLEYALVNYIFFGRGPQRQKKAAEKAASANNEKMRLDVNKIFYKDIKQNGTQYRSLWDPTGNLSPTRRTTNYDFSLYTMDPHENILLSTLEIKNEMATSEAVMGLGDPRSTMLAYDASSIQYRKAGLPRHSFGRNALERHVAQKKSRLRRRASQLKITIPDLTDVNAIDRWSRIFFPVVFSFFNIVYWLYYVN
T1 sequence (P18507 40-467 partner limits assumed): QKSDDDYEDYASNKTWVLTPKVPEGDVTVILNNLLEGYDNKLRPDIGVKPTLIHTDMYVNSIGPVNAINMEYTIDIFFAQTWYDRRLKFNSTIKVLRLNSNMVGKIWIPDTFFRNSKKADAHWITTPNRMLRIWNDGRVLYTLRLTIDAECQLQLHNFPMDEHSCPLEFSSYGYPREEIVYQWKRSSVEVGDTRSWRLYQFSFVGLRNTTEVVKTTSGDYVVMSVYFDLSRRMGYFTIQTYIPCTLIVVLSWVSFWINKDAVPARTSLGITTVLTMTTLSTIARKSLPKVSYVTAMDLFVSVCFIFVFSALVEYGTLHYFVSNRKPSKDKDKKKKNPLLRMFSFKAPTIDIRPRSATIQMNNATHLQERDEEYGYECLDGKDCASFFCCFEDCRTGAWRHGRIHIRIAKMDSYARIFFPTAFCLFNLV
Description: as §1

5-HT2A(h) = biological target: T2, 5-HT2A(h) (Homo sapiens, UniProt P28223); assay: CEREP BioPrint binding; conditions: 1.0E-05M; agonist radioligand
T2 construct: CEREP (contract assay panel)
Description: as §1

CB2(h) = biological target: T3, CB2(h) (Homo sapiens, UniProt P34972); assay: CEREP BioPrint binding; conditions: 1.0E-05M; agonist radioligand
T3 construct: CEREP (contract assay panel)
Description: as §1

5-HT1B(h) = biological target: T4, 5-HT1B(h) (Homo sapiens, UniProt P28222); assay: CEREP BioPrint binding; conditions: 1.0E-05M; agonist radioligand
T4 construct: CEREP (contract assay panel)
Description: as §1

BZD (central) = assay: CEREP BioPrint binding; conditions: 1.0E-05M; agonist radioligand
Description: as §1

SK-Ca channel = assay: CEREP BioPrint binding; conditions: 1.0E-05M
Description: as §1

5-HT3(h) = biological target: T5, 5-HT3(h) (Homo sapiens, UniProt P46098); assay: CEREP BioPrint binding; conditions: 1.0E-05M; agonist radioligand
T5 construct: CEREP (contract assay panel)
T5 sequence (P46098 24-478): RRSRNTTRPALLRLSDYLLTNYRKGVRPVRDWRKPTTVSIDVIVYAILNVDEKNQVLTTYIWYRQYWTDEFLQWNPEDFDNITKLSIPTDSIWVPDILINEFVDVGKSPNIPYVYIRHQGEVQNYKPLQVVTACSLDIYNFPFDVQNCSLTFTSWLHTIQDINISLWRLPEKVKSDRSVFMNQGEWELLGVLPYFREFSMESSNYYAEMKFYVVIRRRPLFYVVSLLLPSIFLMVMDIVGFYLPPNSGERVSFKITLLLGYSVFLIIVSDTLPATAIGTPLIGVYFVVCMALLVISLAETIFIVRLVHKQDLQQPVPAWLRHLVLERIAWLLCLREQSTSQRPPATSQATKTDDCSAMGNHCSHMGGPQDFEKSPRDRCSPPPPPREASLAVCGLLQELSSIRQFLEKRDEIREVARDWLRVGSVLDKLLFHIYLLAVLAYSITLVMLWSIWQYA
Description: as §1

GABAB(1b)(h) = biological target: T6, GABAB(1b)(h) (Homo sapiens, UniProt Q9UBS5); assay: CEREP BioPrint binding; conditions: 1.0E-05M; agonist radioligand
T6 construct: CEREP (contract assay panel)
Description: as §1

5-HT1A(h) = biological target: T7, 5-HT1A(h) (Homo sapiens, UniProt P08908); assay: CEREP BioPrint binding; conditions: 1.0E-05M; agonist radioligand
T7 construct: CEREP (contract assay panel)
T7 sequence (P08908 1-422): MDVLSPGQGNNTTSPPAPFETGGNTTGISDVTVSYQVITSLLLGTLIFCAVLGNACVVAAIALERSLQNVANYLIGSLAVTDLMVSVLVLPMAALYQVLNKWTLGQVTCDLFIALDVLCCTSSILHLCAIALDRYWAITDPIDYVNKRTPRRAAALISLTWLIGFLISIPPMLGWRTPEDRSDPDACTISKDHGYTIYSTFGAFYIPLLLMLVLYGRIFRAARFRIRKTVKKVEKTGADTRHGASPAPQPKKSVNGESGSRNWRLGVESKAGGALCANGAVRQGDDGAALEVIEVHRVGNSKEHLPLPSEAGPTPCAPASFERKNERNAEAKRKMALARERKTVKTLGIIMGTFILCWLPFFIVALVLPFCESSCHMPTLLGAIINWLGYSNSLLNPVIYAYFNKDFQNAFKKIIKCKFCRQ
Description: as §1

5-HT2B(h) = biological target: T8, 5-HT2B(h) (Homo sapiens, UniProt P41595); assay: CEREP BioPrint binding; conditions: 1.0E-05M; agonist radioligand
T8 construct: CEREP (contract assay panel)
Description: as §1

5-HT4e(h) = biological target: T9, 5-HT4e(h) (Homo sapiens, UniProt Q13639); assay: CEREP BioPrint binding; conditions: 1.0E-05M; agonist radioligand
T9 construct: CEREP (contract assay panel)
Description: as §1

GABA transporter = assay: CEREP BioPrint binding; conditions: 1.0E-05M
Description: as §1

5-HT1D(h) = biological target: T10, 5-HT1D(h) (Homo sapiens, UniProt P28221); assay: CEREP BioPrint binding; conditions: 1.0E-05M; agonist radioligand
T10 construct: CEREP (contract assay panel)
Description: as §1

CB1(h) = biological target: T11, CB1(h) (Homo sapiens, UniProt P21554); assay: CEREP BioPrint binding; conditions: 1.0E-05M; agonist radioligand
T11 construct: CEREP (contract assay panel)
Description: as §1

T8 sequence (P41595 whole entry): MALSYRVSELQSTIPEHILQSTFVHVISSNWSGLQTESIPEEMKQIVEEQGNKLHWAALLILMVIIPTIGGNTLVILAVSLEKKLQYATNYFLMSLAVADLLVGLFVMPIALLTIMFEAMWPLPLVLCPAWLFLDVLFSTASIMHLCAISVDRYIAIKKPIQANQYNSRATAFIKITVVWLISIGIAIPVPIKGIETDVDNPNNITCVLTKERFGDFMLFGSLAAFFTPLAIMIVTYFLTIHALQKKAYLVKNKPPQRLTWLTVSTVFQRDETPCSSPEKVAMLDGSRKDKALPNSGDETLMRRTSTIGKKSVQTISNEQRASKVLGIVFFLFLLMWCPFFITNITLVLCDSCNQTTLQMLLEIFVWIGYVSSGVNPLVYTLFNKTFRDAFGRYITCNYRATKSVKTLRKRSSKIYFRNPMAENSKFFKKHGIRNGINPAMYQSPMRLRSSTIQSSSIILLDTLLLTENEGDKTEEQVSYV
T10 sequence (P28221 whole entry): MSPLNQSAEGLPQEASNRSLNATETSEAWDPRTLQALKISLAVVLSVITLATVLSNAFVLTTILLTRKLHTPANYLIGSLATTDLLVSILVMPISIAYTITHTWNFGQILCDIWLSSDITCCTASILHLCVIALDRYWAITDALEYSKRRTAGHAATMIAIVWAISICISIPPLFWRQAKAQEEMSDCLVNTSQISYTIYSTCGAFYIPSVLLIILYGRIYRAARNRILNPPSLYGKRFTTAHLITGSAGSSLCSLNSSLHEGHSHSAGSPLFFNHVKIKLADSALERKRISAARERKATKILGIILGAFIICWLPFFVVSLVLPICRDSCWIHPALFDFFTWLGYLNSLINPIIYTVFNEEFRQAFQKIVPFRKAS
T9 sequence (Q13639 1-378 isoform Q13639-5): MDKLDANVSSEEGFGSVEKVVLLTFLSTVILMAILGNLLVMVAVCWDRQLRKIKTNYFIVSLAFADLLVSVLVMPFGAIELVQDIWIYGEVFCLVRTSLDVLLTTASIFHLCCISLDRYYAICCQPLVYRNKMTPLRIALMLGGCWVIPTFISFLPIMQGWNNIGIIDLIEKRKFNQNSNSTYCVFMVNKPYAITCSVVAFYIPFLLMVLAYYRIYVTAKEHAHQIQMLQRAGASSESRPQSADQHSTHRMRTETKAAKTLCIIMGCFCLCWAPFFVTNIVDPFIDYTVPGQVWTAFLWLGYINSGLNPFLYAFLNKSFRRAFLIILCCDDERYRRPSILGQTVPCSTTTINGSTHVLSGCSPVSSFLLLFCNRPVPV
T11 sequence (P21554 whole entry): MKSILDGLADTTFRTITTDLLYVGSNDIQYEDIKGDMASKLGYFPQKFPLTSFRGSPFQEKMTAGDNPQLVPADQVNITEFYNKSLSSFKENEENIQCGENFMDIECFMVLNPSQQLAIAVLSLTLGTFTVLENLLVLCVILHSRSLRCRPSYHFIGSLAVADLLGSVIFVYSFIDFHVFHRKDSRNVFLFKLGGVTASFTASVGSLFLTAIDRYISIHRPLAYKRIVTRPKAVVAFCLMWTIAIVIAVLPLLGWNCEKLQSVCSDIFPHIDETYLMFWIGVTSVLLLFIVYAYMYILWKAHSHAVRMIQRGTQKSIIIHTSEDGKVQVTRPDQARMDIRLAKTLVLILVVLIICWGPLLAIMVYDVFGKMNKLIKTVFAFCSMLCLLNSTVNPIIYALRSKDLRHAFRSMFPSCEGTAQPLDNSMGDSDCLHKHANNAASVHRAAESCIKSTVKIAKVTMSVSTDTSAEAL
T4 sequence (P28222 whole entry): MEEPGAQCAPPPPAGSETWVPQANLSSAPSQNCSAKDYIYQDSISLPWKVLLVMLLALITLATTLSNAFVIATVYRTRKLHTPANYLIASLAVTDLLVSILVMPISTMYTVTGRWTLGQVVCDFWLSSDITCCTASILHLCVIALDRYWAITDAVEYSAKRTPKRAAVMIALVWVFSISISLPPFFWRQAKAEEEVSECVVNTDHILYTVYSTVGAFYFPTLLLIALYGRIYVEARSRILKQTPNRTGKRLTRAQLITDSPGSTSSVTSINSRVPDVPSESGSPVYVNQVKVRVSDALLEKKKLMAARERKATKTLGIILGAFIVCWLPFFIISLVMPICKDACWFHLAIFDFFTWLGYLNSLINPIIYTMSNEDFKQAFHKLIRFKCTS
T6 sequence (Q9UBS5 1-844 isoform Q9UBS5-2): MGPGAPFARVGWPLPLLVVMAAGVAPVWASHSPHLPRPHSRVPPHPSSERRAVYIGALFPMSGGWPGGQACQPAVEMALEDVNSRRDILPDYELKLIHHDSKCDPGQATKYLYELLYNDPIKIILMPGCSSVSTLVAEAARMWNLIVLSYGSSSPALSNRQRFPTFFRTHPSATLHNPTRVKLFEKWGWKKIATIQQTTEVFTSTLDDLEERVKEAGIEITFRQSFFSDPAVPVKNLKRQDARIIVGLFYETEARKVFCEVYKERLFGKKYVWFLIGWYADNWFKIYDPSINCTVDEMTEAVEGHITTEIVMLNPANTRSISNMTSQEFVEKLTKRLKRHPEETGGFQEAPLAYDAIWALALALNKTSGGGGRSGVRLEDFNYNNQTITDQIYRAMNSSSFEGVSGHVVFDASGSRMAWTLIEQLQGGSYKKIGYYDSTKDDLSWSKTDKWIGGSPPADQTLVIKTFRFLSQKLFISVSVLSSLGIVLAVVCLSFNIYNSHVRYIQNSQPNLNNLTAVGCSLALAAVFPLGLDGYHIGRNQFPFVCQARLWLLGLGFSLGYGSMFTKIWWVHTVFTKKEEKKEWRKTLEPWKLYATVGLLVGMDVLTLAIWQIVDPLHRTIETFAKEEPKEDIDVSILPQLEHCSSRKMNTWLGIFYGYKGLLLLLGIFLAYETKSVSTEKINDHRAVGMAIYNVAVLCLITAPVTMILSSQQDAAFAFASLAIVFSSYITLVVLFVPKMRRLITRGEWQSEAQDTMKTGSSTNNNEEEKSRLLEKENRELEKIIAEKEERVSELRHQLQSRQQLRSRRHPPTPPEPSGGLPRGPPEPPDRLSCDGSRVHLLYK
T3 sequence (P34972 whole entry): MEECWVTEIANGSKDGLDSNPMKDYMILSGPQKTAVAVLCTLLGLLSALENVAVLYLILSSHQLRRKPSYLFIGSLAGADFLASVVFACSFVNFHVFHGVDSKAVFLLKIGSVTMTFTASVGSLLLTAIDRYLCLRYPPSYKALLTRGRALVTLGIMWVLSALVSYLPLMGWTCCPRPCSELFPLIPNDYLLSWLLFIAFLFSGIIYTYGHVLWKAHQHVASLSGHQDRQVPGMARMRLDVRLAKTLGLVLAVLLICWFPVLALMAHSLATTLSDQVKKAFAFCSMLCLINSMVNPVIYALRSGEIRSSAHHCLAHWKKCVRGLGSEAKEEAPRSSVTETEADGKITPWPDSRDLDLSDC
T2 sequence (P28223 whole entry): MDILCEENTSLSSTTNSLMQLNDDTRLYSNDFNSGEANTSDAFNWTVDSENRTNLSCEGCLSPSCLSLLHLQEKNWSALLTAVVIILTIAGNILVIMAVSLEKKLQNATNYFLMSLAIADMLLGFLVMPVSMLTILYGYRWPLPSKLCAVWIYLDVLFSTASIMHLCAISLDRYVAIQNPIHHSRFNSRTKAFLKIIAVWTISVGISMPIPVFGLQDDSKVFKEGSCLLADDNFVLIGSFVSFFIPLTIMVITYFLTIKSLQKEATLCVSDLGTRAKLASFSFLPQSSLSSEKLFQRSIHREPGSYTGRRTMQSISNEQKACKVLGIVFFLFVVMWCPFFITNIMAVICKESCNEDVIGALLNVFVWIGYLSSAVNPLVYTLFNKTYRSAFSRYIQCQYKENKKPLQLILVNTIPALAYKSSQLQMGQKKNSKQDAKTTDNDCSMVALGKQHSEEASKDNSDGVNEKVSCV

Clc1ccc(Cn2c(CN3CCCC3)nc3ccccc32)cc1 [Clemizole]
swim activity / seizure behavior, third evaluation (scn1Lab mutants [1]; 100 μM, 10 fish per trial): effective in suppressing spontaneous seizure activity | seizure-induced swim activity and mean velocity, re-test on separate clutch (scn1Lab mutants [1]; 667, 67 and 6.7 μM): effective in reducing seizure-induced swim activity and mean velocity | effect on seizure behavior (scn1Lab mutants [1]; concentrations between 6.25 and 50 μM, n=33): no significant effect | forebrain electrographic seizure activity in the same mutants after the locomotion assay (scn1Lab mutants [2]; 100 μM, mutant embedded in agar): effective in suppressing spontaneous seizure activity | burst duration (scn1Lab mutants [2]; clemizole-treated mutants (100 μM), n=7, un-treated mutants 926±414): 154 ± 127 ms | burst frequency (scn1Lab mutants [2]; mutants exposed to clemizole first in locomotion assay (100 μM), n=7, un-treated mutants 1.5±0.3): 0.2±0.01 bursts/min | seizure behavior [3]: effective in reducing seizure behavior | % inhibition of the binding of a radioactively labeled ligand, GABA-gated Cl channel (GABA-gated Cl channel): 24.9% | % inhibition of the binding of a radioactively labeled ligand, GABAA1(h) (GABAA1(h)): −9.6% | % inhibition of the binding of a radioactively labeled ligand, 5-HT2A(h) (5-HT2A(h)): 86% | % inhibition of the binding of a radioactively labeled ligand, CB2(h) (CB2(h)): 28.4% | % inhibition of the binding of a radioactively labeled ligand, 5-HT1B(h) (5-HT1B(h)): 4.4% | % inhibition of the binding of a radioactively labeled ligand, BZD (central) (BZD (central)): −19.6% | % inhibition of the binding of a radioactively labeled ligand, SK-Ca channel (SK-Ca channel): −0.2% | % inhibition of the binding of a radioactively labeled ligand, 5-HT3(h) (5-HT3(h)): 9.8% | % inhibition of the binding of a radioactively labeled ligand, GABAB(1b)(h) (GABAB(1b)(h)): −5.9% | % inhibition of the binding of a radioactively labeled ligand, 5-HT1A(h) (5-HT1A(h)): 19.5% | % inhibition of the binding of a radioactively labeled ligand, 5-HT2B(h) (5-HT2B(h)): 82.5% | % inhibition of the binding of a radioactively labeled ligand, 5-HT4e(h) (5-HT4e(h)): −1.0% | % inhibition of the binding of a radioactively labeled ligand, GABA transporter (GABA transporter): −5.9% | % inhibition of the binding of a radioactively labeled ligand, 5-HT1D(h) (5-HT1D(h)): 22.7% | % inhibition of the binding of a radioactively labeled ligand, CB1(h) (CB1(h)): 17.9%
